Measurements taken from patent US20240207427A1, “SELECTIVE DRUG RELEASE FROM INTERNALIZED CONJUGATES OF BIOLOGICALLY ACTIVE COMPOUNDS” (priority 2021, published 2024).

Experiments:
neutrophil elastase = target: T1, neutrophil elastase (Homo sapiens, UniProt P08246); assay: Neutrophil elastase assay of ADCs; type: biochemical; settings: 8-load ADC, 37 C, 3 h, pH 7.5, FIG. 6A
T1 sequence (P08246 30-267): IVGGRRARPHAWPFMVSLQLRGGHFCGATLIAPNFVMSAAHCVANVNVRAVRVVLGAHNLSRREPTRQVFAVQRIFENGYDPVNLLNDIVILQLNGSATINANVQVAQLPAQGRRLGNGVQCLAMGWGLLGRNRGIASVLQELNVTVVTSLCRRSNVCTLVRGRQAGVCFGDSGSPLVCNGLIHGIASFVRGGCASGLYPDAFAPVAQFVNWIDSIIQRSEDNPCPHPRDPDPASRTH
Description: To a mixture of 8-load ADC (5 ug), buffer (100 mM tris, 75 mM NaCl, pH 7.5; final concentration), and neutrophil elastase (100 ng) was added water to 20 uL. The reaction was incubated at 37 C for 3 h and then immediately analyzed by a QToF mass spectrometer.

[1] = system: non-small-cell lung cancer cells (Calu1); assay: In vitro potency (CellTiter-Glo, 96 h), Calu1; type: cell-based; settings: Homo sapiens, Calu-1, 96 h, read-out: Calu1 IC50
Summary of the method: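 RPMI 1640/20% FBS cultures, log phase, plated 24 h → ADC titration → 4 d, 37 °C → luminescence → IC50, ng/mL.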

[2] = system: acute myeloid leukemia cells (MOLM-13); assay: In vitro potency (CellTiter-Glo, 96 h), MOLM-13; type: cell-based; settings: Homo sapiens, MOLM-13, 96 h, read-out: MOLM-13 IC50, Table 28; CPT free drugs; acute myeloid leukemia cells MOLM-13; 96 h, CellTiter-Glo
Summary of the method: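 Seed log-phase cells 24 h (RPMI 1640, 20% FBS); add ADC serial dilutions; incubate 96 h, 37 °C; read luminescence; IC50 in ng/mL.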

[3] = system: HPAFII cell line (Ag1 upregulated); assay: In vitro cytotoxicity of Ag1 ADCs, HPAFII cells; type: cell-based; settings: in words, Tables 5a and 5b
Description: In vitro cytotoxicity. The cytotoxicity of a tripeptide-based Antibody Drug Conjugate was measured by a cell proliferation assay employing the protocol described in Promega Corp. Technical Bulletin TB288; and Mendoza et al., 2002, Cancer Res. 62:5485-5488), the methods of which are specifically incorporated by reference herein. Briefly, an aliquot of 40 μl of cell culture containing about 400 cells in medium is deposited in each well of a 384-well, opaque-walled plate. A 10 μL aliquot of free drug or Ligand-Drug Conjugate is added to the experimental wells and incubated for 96 h and are then equilibrated to room temperature for approximately 30 minutes whereupon a volume of CellTiter-Glo™ reagent equal to the volume of cell culture medium present in each well is added. The contents are mixed for 2 minutes on an orbital shaker to induce cell lysis and the plate is incubated at room temperature for 10 minutes to stabilize the luminescence signal for recordation.
The italicized values in Tables 5, 5a, and 5b indicate the percentage of cells remaining after 96 hr incubation at the maximum concentration of drug added. For convenience the numbering for the library members of Tables 5 and 5A are retained for the corresponding Drug linker compounds that are incorporated into the ADC of Tables 5, 5a, and 5b.

SMILES | percentage of drug cleaved from the heavy chain by neutrophil elastase (neutrophil elastase) | IC50 [1] | IC50 [2] | cytotoxicity compared with comparator dipeptide-based ADC (1) [3] | efficacy compared with comparator dipeptide-based ADC (1) [3]
CC[C@@]1(O)C(=O)OCc2c1cc1n(c2=O)Cc2c-1nc1cc3c(cc1c2CN)CC=C3 [Compound 5] | lower than that found for non-targeted ADC 37 | 129 nM | 258 nM |  | 
CC[C@@]1(O)C(=O)OCc2c1cc1n(c2=O)Cc2c-1nc1cc3c(cc1c2CN(C)CCCN)OCO3 [Compound 8, (5S)-14-[[3-aminopropyl(methyl)amino]methyl]-5-ethyl-S-hydroxy-7,18,20-trioxa-11,24-diazahexacyclo [11.11.0.02,11.04,9.015,23.017,21]tetracosa-1(13),2,4(9),14,16,21,23-heptaene-6,10-dione; 2,2,2-trifluoroacetic acid] |  |  |  | less cytotoxic | similarly efficacious
